Molecules are shown by their SMILES.

One assay deals with recombinant human NK3 receptor (Homo sapiens (Human), UniProt P29371). The assay can be described thus: biochemical. It is filed as binding.
recombinant human NK3 receptor, sequence (P29371 whole entry): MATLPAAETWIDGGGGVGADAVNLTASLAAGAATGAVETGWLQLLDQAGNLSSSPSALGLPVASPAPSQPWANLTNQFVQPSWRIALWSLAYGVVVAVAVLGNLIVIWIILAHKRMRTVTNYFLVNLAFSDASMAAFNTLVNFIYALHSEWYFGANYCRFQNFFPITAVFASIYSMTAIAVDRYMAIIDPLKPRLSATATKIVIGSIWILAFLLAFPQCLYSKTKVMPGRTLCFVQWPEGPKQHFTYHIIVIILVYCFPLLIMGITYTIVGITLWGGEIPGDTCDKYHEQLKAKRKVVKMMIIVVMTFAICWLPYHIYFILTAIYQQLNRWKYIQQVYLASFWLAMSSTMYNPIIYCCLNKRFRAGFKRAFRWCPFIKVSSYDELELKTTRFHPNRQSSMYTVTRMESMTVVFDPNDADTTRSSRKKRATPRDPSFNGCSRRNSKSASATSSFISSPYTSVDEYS
Conditions: not given
On the procedure: [^3H]SR142801 Competition Binding Assay
hNK3 receptor binding experiment were performed using [^3H]SR142801 (Catalog No. TRK1035, specific activity: 74.0 Ci/mmol, Amersham, GE Healthcare UK limited, Buckinghamshire, UK) and membrane isolated from HEK293 cells transiently expressing recombinant human NK3 receptor. After thawing, the membrane homogenates were centrifuged at 48,000×g for […] at 4° C., the pellets were resuspended in the 50 mM Tris-HCl, 4 mM MnCl2, 1 μM phosphoramidon, 0.1% BSA binding buffer at pH 7.4 to a final assay concentration of 5 μg protein/well. For inhibition experiments, membranes were incubated with [^3H]SR142801 at a concentration equal to KD value of radioligand and 10 concentrations of the inhibitory compound (0.0003-10 μM) (in a total reaction volume of 500 μl) for 75 min at room temperature (RT). At the end of the incubation, membranes were filtered onto unitfilter (96-well white microplate with bonded GF/C filter preincubated 1 h in 0.3% PEI+0.3% BSA, Packard BioScience, Meriden, Conn.) with a Filtermate 196 harvester (Packard BioScience) and washed 4 times with ice-cold 50 mM Tris-HCl, pH 7.4 buffer. Nonspecific binding was measured in the presence of 10 μM SB222200 for both radioligands. The radioactivity on the filter was counted (5 min) on a Packard Top-count microplate scintillation counter with quenching correction after addition of 45 μl of microscint 40 (Canberra Packard S.A., Zürich, Switzerland) and shaking for 1 h. Inhibition curves were fitted according to the Hill equation: y=100/(1+(x/IC50)^nH), where nH=slope factor using Excel-fit 4 software (Microsoft). IC50 values were derived from the inhibition curve and the affinity constant (Ki) values were calculated using the Cheng-Prussoff equation Ki=IC50/(1+[L]/KD) where [L] is the concentration of radioligand and KD is its dissociation constant at the receptor, derived from the saturation isotherm. All experiments were performed in duplicate and the mean±standard error (SEM) of the individual Ki values was calculated.
With `CCN(C(=O)Oc1ccc(F)cc1)[C@@H]1CN(C(=O)C2CCN(C(=O)C3(C)CC3)CC2)C[C@H]1c1ccc(Cl)c(Cl)c1` (racemic) [Example 1, rac-{(3S,4R)-4-(3,4-Dichloro-phenyl)-1-[1-(1-methyl-cyclopropanecarbonyl)-piperidine-4-carbonyl]-pyrrolidin-3-yl}-ethyl-carbamic acid 4-fluoro-phenyl ester], the Ki was found to be 1 nM.

The same assay, now with this note: [3H]SR142801, membranes of HEK293 cells transiently expressing recombinant human NK3 receptor; read-out: Data Ki (hNK-3 receptor affinity).
`CCN(C(=O)Oc1ccc(F)cc1)[C@@H]1CN(C(=O)C2CCN(C(=O)C3CCC3)CC2)C[C@H]1c1ccc(Cl)cc1` [Example 87, [(3S,4R)-4-(4-Chloro-phenyl)-1-(1-cyclobutanecarbonyl-piperidine-4-carbonyl)-pyrrolidin-3-yl]-ethyl-carbamic acid 4-fluoro-phenyl ester]: the Ki came out at 2.1 nM.
Consider `CCN(C(=O)Oc1ccc(F)cc1)[C@@H]1CN(C(=O)C2CCN(c3ccc(C(C)=O)cn3)CC2)C[C@H]1c1ccc(F)c(Cl)c1` [Example 120, [(3S,4R)-1-(5′-Acetyl-3,4,5,6-tetrahydro-2H-[1,2′]bipyridinyl-4-carbonyl)-4-(3-chloro-4-fluoro-phenyl)-pyrrolidin-3-yl]-ethyl-carbamic acid 4-fluoro-phenyl ester], for which the Ki was found to be 1.7 nM.
Regarding `CCN(C(=O)Oc1ccc(F)cc1)[C@H]1CN(C(=O)C2CCN(c3ncc(C#N)cn3)CC2)C[C@@H]1c1ccc(Cl)cc1` [Example 7, {(3R,4S)-4-(4-Chloro-phenyl)-1-[1-(5-cyano-pyrimidin-2-yl)-piperidine-4-carbonyl]-pyrrolidin-3-yl}-ethyl-carbamic acid 4-fluoro-phenyl ester], the Ki stood at 89 nM.
Regarding `CCN(C(=O)Oc1ccccc1F)[C@@H]1CN(C(=O)C2CCN(C(=O)C3(C#N)CC3)CC2)C[C@H]1c1ccc(Cl)cc1` [Example 85, {(3S,4R)-4-(4-Chloro-phenyl)-1-[1-(1-cyano-cyclopropanecarbonyl)-piperidine-4-carbonyl]-pyrrolidin-3-yl}-ethyl-carbamic acid 2-fluoro-phenyl ester], the inhibitory constant (Ki) is 23.3 nM.
Regarding `CCN(C(=O)Oc1ccc(F)cc1)[C@@H]1CN(C(=O)C2CCN(c3ccc(C(N)=O)cn3)CC2)C[C@H]1c1ccc(Cl)c(Cl)c1` [Example 115, [(3S,4R)-1-(5′-Carbamoyl-3,4,5,6-tetrahydro-2H-[1,2′]bipyridinyl-4-carbonyl)-4-(3,4-dichloro-phenyl)-pyrrolidin-3-yl]-ethyl-carbamic acid 4-fluoro-phenyl ester], the Ki stood at 0.9 nM.
As to `CCN(C(=O)Oc1ccc(F)cc1)[C@@H]1CN(C(=O)C2CCN(c3ccc(C#N)nn3)CC2)C[C@H]1c1ccc(Cl)c(F)c1` [Example 57, {(3S,4R)-4-(4-Chloro-3-fluoro-phenyl)-1-[1-(6-cyano-pyridazin-3-yl)-piperidine-4-carbonyl]-pyrrolidin-3-yl}-ethyl-carbamic acid 4-fluoro-phenyl ester], the Ki amounted to 0.7 nM.
Regarding `CC(C)CN(C(=O)Oc1ccc(F)cc1)[C@@H]1CN(C(=O)C2CCN(C(=O)C3(C)CC3)CC2)C[C@H]1c1ccc(Cl)c(Cl)c1` (racemic) [Example 3, rac-{(3S,4R)-4-(3,4-Dichloro-phenyl)-1-[1-(1-methyl-cyclopropanecarbonyl)-piperidine-4-carbonyl]-pyrrolidin-3-yl}-isobutyl-carbamic acid 4-fluoro-phenyl ester], the Ki is 276 nM.
For `CCN(C(=O)Oc1ccc(F)cc1)[C@@H]1CN(C(=O)C2CCN(C(=O)C3CC3(F)F)CC2)C[C@H]1c1ccc(Cl)cc1` (stereo partly drawn) [Example 96, {(3S,4R)-4-(4-Chloro-phenyl)-1-[1-(2,2-difluoro-cyclopropanecarbonyl)-piperidine-4-carbonyl]-pyrrolidin-3-yl}-ethyl-carbamic acid 4-fluoro-phenyl ester], the Ki came out at 3.4 nM.
Regarding `CCN(C(=O)Oc1ccc(F)cc1)[C@@H]1CN(C(=O)C2CCN(C(=O)C3CC(OC)C3)CC2)C[C@H]1c1ccc(Cl)cc1` (stereo partly drawn) [Example 91, {(3S,4R)-4-(4-Chloro-phenyl)-1-[1-(3-methoxy-cyclobutanecarbonyl)-piperidine-4-carbonyl]-pyrrolidin-3-yl}-ethyl-carbamic acid 4-fluoro-phenyl ester], the Ki came out at 6.5 nM.
Regarding `CCN(C(=O)Oc1ccc(F)cc1)[C@@H]1CN(C(=O)C2CCN(C(=O)c3ccc(C(F)(F)F)cn3)CC2)C[C@H]1c1ccc(Cl)c(F)c1` [Example 74, {(3S,4R)-4-(4-Chloro-3-fluoro-phenyl)-1-[1-(5-trifluoromethyl-pyridine-2-carbonyl)-piperidine-4-carbonyl]-pyrrolidin-3-yl}-ethyl-carbamic acid 4-fluoro-phenyl ester], the Ki was found to be 12 nM.
With `N#Cc1ccc(N2CCC(C(=O)N3C[C@H](c4ccc(Cl)cc4)[C@@H](N(C(=O)Oc4ccc(F)cc4)C4CC4)C3)CC2)nc1` [Example 34, [(3R,4S)-4-(4-Chloro-phenyl)-1-(5′-cyano-3,4,5,6-tetrahydro-2H-[1,2′]bipyridinyl-4-carbonyl)-pyrrolidin-3-yl]-cyclopropyl-carbamic acid 4-fluoro-phenyl ester], the Ki was 116 nM.
On to `CCN(C(=O)Oc1ccc(F)cc1)[C@@H]1CN(C(=O)C2CCN(C(=O)OC(C)(C)C)CC2)C[C@H]1c1ccc(Cl)c(F)c1` [Example 39, 4-{(3R,4S)-3-(4-Chloro-3-fluoro-phenyl)-4-[ethyl-(4-fluoro-phenoxycarbonyl)-amino]-pyrrolidine-1-carbonyl}-piperidine-1-carboxylic acid tert-butyl ester], for which the Ki turned out to be 4 nM.
For the molecule `CCN(C(=O)Oc1ccc(F)cc1)[C@@H]1CN(C(=O)C2CCNCC2)C[C@H]1c1ccc(Cl)c(F)c1` [Example 56, [(3S,4R)-4-(4-Chloro-3-fluoro-phenyl)-1-(piperidine-4-carbonyl)-pyrrolidin-3-yl]-ethyl-carbamic acid 4-fluoro-phenyl ester], the Ki was 267 nM.
`CCN(C(=O)Oc1ccc(F)cc1)[C@@H]1CN(C(=O)C2CCN(c3ccc(Cl)cn3)CC2)C[C@H]1c1ccc(Cl)c(F)c1` [Example 41, [(3S,4R)-4-(4-Chloro-3-fluoro-phenyl)-1-(5′-chloro-3,4,5,6-tetrahydro-2H-[1,2′]bipyridinyl-4-carbonyl)-pyrrolidin-3-yl]-ethyl-carbamic acid 4-fluoro-phenyl ester]: the Ki stood at 0.6 nM.

Still in this assay, the particulars now being: read-out: Data Ki (hNK-3 receptor affinity).
`CCN(C(=O)Oc1ccc(F)cc1)[C@@H]1CN(C(=O)C2CCN(c3cnc(C#N)cn3)CC2)C[C@H]1c1ccc(Cl)cc1` [Example 17, {(3S,4R)-4-(4-Chloro-phenyl)-1-[1-(5-cyano-pyrazin-2-yl)-piperidine-4-carbonyl]-pyrrolidin-3-yl}-ethyl-carbamic acid 4-fluoro-phenyl ester]: the Ki turned out to be 2 nM.
`CCN(C(=O)Oc1ccc(F)cc1)[C@@H]1CN(C(=O)C2CCN(C(=O)C3CCC(=O)NC3)CC2)C[C@H]1c1ccc(Cl)cc1` (stereo partly drawn) [Example 103, {(3S,4R)-4-(4-Chloro-phenyl)-1-[1-(6-oxo-piperidine-3-carbonyl)-piperidine-4-carbonyl]-pyrrolidin-3-yl}-ethyl-carbamic acid 4-fluoro-phenyl ester]: the Ki turned out to be 32.6 nM.
In the case of `CCN(C(=O)Oc1ccc(F)cc1)[C@H]1CN(C(=O)C2CCN(C(=O)C3(C)CC3)CC2)C[C@@H]1c1ccc(Cl)c(Cl)c1` [Example 6, {(3R,4S)-4-(3,4-Dichloro-phenyl)-1-[1-(1-methyl-cyclopropanecarbonyl)-piperidine-4-carbonyl]-pyrrolidin-3-yl}-ethyl-carbamic acid 4-fluoro-phenyl ester], the inhibition constant (Ki) stood at 62 nM.
Regarding `CCN(C(=O)Oc1ccc(F)cc1)[C@@H]1CN(C(=O)C2CCN(c3ccc(C(C)=O)cn3)CC2)C[C@H]1c1ccc(F)cc1` [Example 38, [(3S,4R)-1-(5′-Acetyl-3,4,5,6-tetrahydro-2H-[1,2′]bipyridinyl-4-carbonyl)-4-(4-fluoro-phenyl)-pyrrolidin-3-yl]-ethyl-carbamic acid 4-fluoro-phenyl ester], the Ki worked out at 7 nM.
Consider `CCN(C(=O)Oc1ccccc1F)[C@@H]1CN(C(=O)C2CCN(C(=O)c3ccc(C(F)(F)F)cn3)CC2)C[C@H]1c1ccc(Cl)cc1` [Example 86, {(3S,4R)-4-(4-Chloro-phenyl)-1-[1-(5-trifluoromethyl-pyridine-2-carbonyl)-piperidine-4-carbonyl]-pyrrolidin-3-yl}-ethyl-carbamic acid 2-fluoro-phenyl ester], for which the Ki worked out at 70.7 nM.
For the molecule `CCN(C(=O)Oc1ccc(F)cc1)[C@@H]1CN(C(=O)C2CCN(c3cc(C#N)ccn3)CC2)C[C@H]1c1ccc(Cl)cc1` [Example 15, [(3S,4R)-4-(4-Chloro-phenyl)-1-(4′-cyano-3,4,5,6-tetrahydro-2H-[1,2′]bipyridinyl-4-carbonyl)-pyrrolidin-3-yl]-ethyl-carbamic acid 4-fluoro-phenyl ester], the Ki is 8 nM.

The record behind these values is US9346786B2, “Pyrrolidine compounds” (Hoffmann-La Roche Inc., priority 2009, dated 2016).
